# Measured values from patent US10323254B2, “Method for regulating plant growth” (RIKEN, priority 2015, dated 2019).
# “Also recorded” adds a separate entry of the source.
# Columns and labels:
# Format in all cases: in vivo, Arabidopsis thaliana
# BSS1-GFP [1] = assay: Fluorescence microscopy of punctate BSS1-GFP in transgenic seedlings; settings: for number of intense puncta per cell: 7-day-old BSS1-GFP seedlings treated 3 hours with 3 μM Brz or 100 μM BL; for single fluorescence intensity of each punctum: Brz versus BL treatment conditions, 3 hours; for onset of responsiveness of punctate BSS1-GFP: time after treatment, roots and hypocotyls
# Protocol: FIGS. 5C to 5E show analysis of BSS1-GFP puncta signal intensities upon treatment with Brz and BL. Seven-day-old BSS1-GFP transgenic seedlings were treated for 3 hours with 3 μM Brz (Brz), an equal volume of DMSO (Mock), or 100 μM BL (BL). […] The results are represented as the mean±s.d. The signal intensity was measured using ImageJ software. […]
# (§1) The plants that were transformed with the CaMV35S-BSS1-GFP construct BSS1(-GFP)-OX and the CaMV35S-BIL1-GFP construct BIL1-GFP-OX were observed via confocal laser scanning microscopy with a BX60 fluorescence microscope (Olympus) equipped with a Model CSU10 confocal scanner (Yokogawa Electric) and LSM700 (Zeiss).
# FM4-64 (Molecular Probes) dissolved in water was applied to Arabidopsis plants at a final concentration of 4 μM for 3 minutes. The plants were washed with water to remove the excessive amount of the stain and observed. A DMSO-base stock solution of Brefeldin A (BFA) (Sigma) was applied to the cells at a final concentration of 50 μM for 1 hour.
# (§2) The images were analyzed using ImageJ software. To measure the ratio of the nuclear and cytosolic signals of BIL1-GFP for each cell, the signal intensities in the nucleus and cytosol were calculated from the mean of the intensity in each area. The nuclear to cytosolic signal ratio was then calculated for each cell. The average nuclear/cytosolic signal ratio and standard error were calculated from measurements of at least 54 cells from each line (FIG. 9B). Line scan measurements from the vacuole to the nucleus through the cytosol were performed, and representative plot profiles of sample measurements are presented in FIG. 5C.
# BSS1 pro:GUS = assay: GUS staining of BSS1 pro:GUS transgenic seedlings; settings: 3-day-old seedlings on medium with 3 μM Brz, dark or light
# Protocol: The data represent the mean±s.d. from 4 independent experiments. […] The samples were grown in the same conditions as FIG. 4A for 3 days (scale bar: 5 mm). FIGS. 4C to 4E show the results of determining the BSS1 expression level by qRT-PCR. Wild-type (WT) seedlings grown on medium with different concentrations of Brz (FIG. 4C) and BL (FIG. 4D) in the light for 7 days and dark-grown seedlings exposed to light for 0-7 days (Figure E) were used for analysis of the BSS1 expression level. The data represent the mean±s.d. of 4 independent experiments. The seedlings of the BSS1 promoter: GUS transgenic plants were used for the histochemical detection of GUS expression. The samples were stained at 37° C. overnight in GUS staining solution as previously described (Ito and Fukuda, 2002, ZEN1 is a key enzyme in the degradation of nuclear DNA during programmed cell death of tracheary elements. Plant Cell 14: 3201-3211). To test the induction of GUS expression, 3-day-old transgenic seedlings were grown on medium with 3 μM Brz or dimethyl sulfoxide (DMSO) as a control.
# BIL1-GFP = assay: Fluorescence microscopy of BIL1-GFP localization in root cells; settings: for punctate BIL1-GFP signals: root cells
# Protocol: The results are presented as the mean±s.d. (n=61, *P<0.01, Student's t-test). […] The results are presented as the mean±s.d. (n=27, *P<0.01, Student's t-test).
# as §1, §2
# BSS1-GFP [2] = assay: Non-reducing immunoblot analysis of BSS1-GFP oligomer; settings: non-reducing conditions (without DTT); after BL treatment
# Protocol: Oligomeric BSS1-GFP and monomeric BSS1-GFP are shown by arrowhead O and arrowhead M, respectively. […] Total lysates were prepared from the transgenic plants and ultracentrifuged to separate the insoluble (precipitation) and soluble (supernatant) fractions. The insoluble fractions were then treated with the indicated surfactants and subjected to further ultracentrifugation. The resulting supernatants and pellets were analyzed by immunoblotting. As a control, the indicated surfactant-treated BIL2-GFP (protein localized to the mitochondria) samples were centrifuged as above.
# […] The proteins were separated by SDS-PAGE (10% acrylamide gel). After electrophoresis, the proteins were electrophoretically transferred to a Hybond ECL nitrocellulose membrane (Amersham). […]
Compound,fluorescence intensity of the puncta per cell with respect to the whole-cell fluorescence intensity (BSS1-GFP [1]; 7-day-old BSS1-GFP seedlings treated 3 hours with 3 μM Brz),number of intense puncta per cell (BSS1-GFP [1]; versus mock),"cytosolic fluorescence signal (BSS1-GFP [1]; 7-day-old BSS1-GFP seedlings treated 3 hours with 3 μM Brz, versus mock)",single fluorescence intensity of each punctum (BSS1-GFP [1]),onset of responsiveness of punctate BSS1-GFP (BSS1-GFP [1]) [min],BSS1 pro:GUS reporter expression (BSS1 pro:GUS),"enhanced nuclear BIL1-GFP signal (BIL1-GFP; bop1-3 bop2-1 background, root cells of 4-day-old seedlings, 3 μM Brz)","punctate BIL1-GFP signals (BIL1-GFP; bop1-3 bop2-1 plants, treated with 3 μM Brz)","nuclear-to-cytosolic ratio of the BIL1-GFP signal (BIL1-GFP; wild-type background, root cells of 4-day-old seedlings, 3 μM Brz)","punctate BIL1-GFP signals (BIL1-GFP; wild-type background, after 3 μM Brz treatment)",amount of the oligomeric form of BSS1-GFP (BSS1-GFP [2])
"CC(O)(c1ccccc1)C(Cc1ccc(Cl)cc1)n1cncn1 (centres unmarked) [Brz, brassinazole]",increase,increased,decreased,not different,15,caused BSS1 expression in the hypocotyls in the dark and in the cotyledons under light and dark conditions,strongly maintained,not detected,decreased,many punctate BIL1-GFP signals in the cytosol; also recorded: observed,–
"CC(C)[C@H](C)[C@@H](O)[C@H](O)[C@@H](C)[C@H]1CC[C@H]2[C@@H]3COC(=O)[C@H]4C[C@H](O)[C@H](O)C[C@]4(C)[C@H]3CC[C@]12C [BL, brassinolide]",–,decreased,–,not different,15,–,–,–,–,–,significantly decreased
